Test results: patent US20240166664A1, “TRIHETEROCYCLIC COMPOUND, PREPARATION METHOD THEREFOR, AND APPLICATION THEREOF” (SHANGHAI APEIRON THERAPEUTICS COMPANY LIMITED, priority 2021, published 2024)
Read-outs that look alike come from different tables or passages of the source.

Legend:
NCI-H1373 cells = experiment: Cell proliferation inhibition assay (CTG method); type: cell-based, human; details: Homo sapiens, NCI-H1373, 144 h, read-out: IC50 (nM) for NCI-H1373 cell viability
PARP7 = target: T1, PARP7 (Homo sapiens, UniProt Q7Z3E1); experiment: Test of inhibitory activity against PARP7 enzyme (PARP7 FLAG-tag, Probe A, time-resolved fluorescence); type: biochemical; details: PARP7 12 nM, Probe A 2 nM, 1 hr room temperature
T1 construct: purchased BPS 80527
T1 sequence (Q7Z3E1 1-657): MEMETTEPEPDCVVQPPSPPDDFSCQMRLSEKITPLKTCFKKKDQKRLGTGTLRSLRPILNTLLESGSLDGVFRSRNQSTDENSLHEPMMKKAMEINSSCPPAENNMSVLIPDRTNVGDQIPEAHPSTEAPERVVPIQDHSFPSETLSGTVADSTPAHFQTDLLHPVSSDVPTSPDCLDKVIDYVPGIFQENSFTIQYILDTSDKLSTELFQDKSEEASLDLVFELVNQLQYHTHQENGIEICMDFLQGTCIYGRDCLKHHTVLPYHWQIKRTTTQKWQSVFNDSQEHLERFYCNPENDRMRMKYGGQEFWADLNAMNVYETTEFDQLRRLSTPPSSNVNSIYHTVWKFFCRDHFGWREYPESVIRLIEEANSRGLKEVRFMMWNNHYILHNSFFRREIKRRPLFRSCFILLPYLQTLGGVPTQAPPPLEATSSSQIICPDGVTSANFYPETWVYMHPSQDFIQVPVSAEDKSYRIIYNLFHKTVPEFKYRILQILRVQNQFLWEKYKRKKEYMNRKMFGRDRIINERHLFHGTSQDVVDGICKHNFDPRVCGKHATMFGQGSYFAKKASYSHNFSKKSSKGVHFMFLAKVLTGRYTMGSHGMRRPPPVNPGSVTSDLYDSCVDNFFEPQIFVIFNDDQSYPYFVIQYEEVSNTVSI

[1] = NCI-H1373 cells, 6 days incubation, CTG method

| SMILES | IC50 (NCI-H1373 cells; [1]) [nM] | IC50 (PARP7) [nM] | IC50 (NCI-H1373 cells) [nM] |
| --- | --- | --- | --- |
| C[C@@H](COCCC(=O)N1CCN2c3ncc(C(F)(F)F)cc3NC[C@H]2C1)Nc1cn[nH]c(=O)c1C(F)(F)F [Compound 9] | 500 to 5000 | < 10 |  |
| C[C@@H](COCCC(=O)N1CCN2c3ncc(C(F)(F)F)cc3CNC[C@H]2C1)Nc1cn[nH]c(=O)c1C(F)(F)F [Compound 10] | 100 to 500 | < 10 |  |
| C[C@@H](COCCC(=O)N1CCN2c3ncc(C(F)(F)F)cc3CN(C#N)C[C@H]2C1)Nc1cn[nH]c(=O)c1C(F)(F)F [Compound 11] | 500 to 5000 | < 10 |  |
| C[C@@H](COCCC(=O)N1CCN2c3ncc(C(F)(F)F)cc3CSC[C@H]2C1)Nc1cn[nH]c(=O)c1C(F)(F)F [Compound 12, 5-(((S)-1-(3-oxo-3-((R)-3-(trifluoromethyl)-7a, 8,10,11-tetrahydro-5H-pyrazino[2,1-c]pyrido[2,3-e][1,4]thiazin-9(7H)-yl)propoxy)prop-2-yl)amino)-4-(trifluoromethyl)pyridazin-3(2H)-one] | < 100 | < 10 |  |
| C[C@@H](COCCC(=O)N1CCN2c3ncc(C(F)(F)F)nc3OC[C@H]2C1)Nc1cn[nH]c(=O)c1C(F)(F)F [Compound 14] | 100 to 500 | < 10 |  |
| C[C@@H](COCCC(=O)N1CCN2c3ncc(C(F)(F)F)cc3C[S+]([O-])C[C@H]2C1)Nc1cn[nH]c(=O)c1C(F)(F)F (stereo partly drawn) [Compound 15, 5-(((2S)-1-(3-((7aR)-6-oxo-3-(trifluoromethyl)-7a, 8,10,11-tetrahydro-5H-pyrazino[2,1-c]pyrido[2,3-e][1,4]thiazin-9(7H)-yl)-3-oxopropoxy)prop-2-yl)amino)-4-(trifluoromethyl)pyridazin-3(2H)-one] | 500 to 5000 | < 10 |  |
| C[C@@H](COCCC(=O)N1CCN2C(=O)c3ncc(C(F)(F)F)cc3OC[C@H]2C1)Nc1cn[nH]c(=O)c1C(F)(F)F [Compound 16, (R)-8-(3-((S)-2-((6-oxo-5-(trifluoromethyl)-1,6-dihydropyridazin-4-yl)amino)propoxy)propionyl)-3-(trifluoromethyl)-6,6a, 7,8,9,10-hexahydro-12H-pyrazino[2,1-c]pyrido[2,3-f][1,4]oxazepin-12-one] | > 5000 | 10 to 100 |  |
| C[C@@H](COCCC(=O)N1CCN2C(=O)c3ncc(C(F)(F)F)cc3OC[C@@H]2C1)Nc1cn[nH]c(=O)c1C(F)(F)F [Compound 17, (S)-8-(3-((S)-2-((6-oxo-5-(trifluoromethyl)-1,6-dihydropyridazin-4-yl)amino)propoxy)propionyl)-3-(trifluoromethyl)-6,6a, 7,8,9,10-hexahydro-12H-pyrazino[2,1-c]pyrido[2,3-f][1,4]oxazepin-12-one] | > 5000 | 10 to 100 |  |
| C[C@@H](COCCC(=O)N1CCN2Cc3ncc(C(F)(F)F)cc3OC[C@H]2C1)Nc1cn[nH]c(=O)c1C(F)(F)F [Compound 18, 5-(((S)-1-(3-oxo-3-((R)-3-(trifluoromethyl)-6a, 7,9,10-tetrahydro-12H-pyrazino[2,1-c]pyrido[2,3-f][1,4]oxazepin-8(6H)-yl)propoxy)prop-2-yl)amino)-4-(trifluoromethyl)pyridazin-3(2H)-one] | > 5000 | 10 to 100 |  |
| C[C@@H](COCCC(=O)N1CCN2Cc3ncc(C(F)(F)F)cc3OC[C@@H]2C1)Nc1cn[nH]c(=O)c1C(F)(F)F [Compound 19, 5-(((S)-1-(3-oxo-3-((S)-3-(trifluoromethyl)-6a, 7,9,10-tetrahydro-12H-pyrazino[2,1-c]pyrido[2,3-f][1,4]oxazepin-8(6H)-yl)propoxy)prop-2-yl)amino)-4-(trifluoromethyl)pyridazin-3(2H)-one] | > 5000 | 100 to 500 |  |
| C[C@@H](COCCC(=O)N1CCN2c3ncc(F)cc3COC[C@H]2C1)Nc1cn[nH]c(=O)c1C(F)(F)F [Compound 20, (R)-9-(3-((S)-2-((6-oxo-5-(trifluoromethyl)-1,6-dihydropyridazin-4-yl)amino)propoxy)propionyl)-3-fluoro-7,7a, 8,9,10,11-hexahydro-5H-pyrazino[2,1-c]pyrido[2,3-e][1,4]oxazin-5-one] | > 5000 | > 500 |  |
| C[C@@H](COCCC(=O)N1CCN2c3ncc(C(F)(F)F)cc3CS(=O)(=O)C[C@H]2C1)Nc1cn[nH]c(=O)c1C(F)(F)F [Compound 22] | 500 to 5000 | < 10 |  |
| C[C@@H](COCCC(=O)N1CCN2c3ncc(C(F)(F)F)cc3CN(C)C[C@H]2C1)Nc1cn[nH]c(=O)c1C(F)(F)F [Compound 23, 5-(((S)-1-(3-((S)-6-methyl-3-(trifluoromethyl)-6,7,7a, 8,10,11-octahydropyrazino[1,2-a]pyrido[3,2-f][1,4]Diazepin-9(5H)-yl)-3-propoxy)prop-2-yl)amino)-4-(trifluoromethyl) pyridazin-3(2H)-one] | 100 to 500 | < 10 |  |
| C[C@@H]1CN2c3ncc(C(F)(F)F)cc3COC[C@H]2CN1C(=O)CCOC[C@H](C)Nc1cn[nH]c(=O)c1C(F)(F)F [Compound 25, 5-(((S)-1-(3-((6aR,9R)-9-methyl-3-(trifluoromethyl)-6a, 7,9,10-tetrahydropyrazino[1,2-d]pyrido[3,2-b][1,4]oxazin-8(6H)-yl)-3-oxypropoxy)prop-2-yl)amino)-4-(trifluoromethyl)pyridazin-3(2H)-one] | 100 to 500 | < 10 |  |
| CC1SC[C@H]2CN(C(=O)CCOC[C@H](C)Nc3cn[nH]c(=O)c3C(F)(F)F)CCN2c2ncc(C(F)(F)F)cc21 (stereo partly drawn) [Compound 27] | 500 to 5000 | < 10 |  |
| C[C@@H](COCCC(=O)N1CCN2c3ncc(C(F)(F)F)cc3OCC[C@H]2C1)Nc1cn[nH]c(=O)c1C(F)(F)F [Compound 29, 5-(((S)-1-(3-oxo-3-((S)-3-(trifluoromethyl)-6,7,7a, 8,10,11-hexahydro-9H-pyrazino[1,2-d]pyrido[3,2-b][1,4]oxazepan-9-yl)propoxy)prop-2-yl)amino)-4-(trifluoromethyl)pyridazin-3(2H)-one] | < 100 | < 10 |  |
| C[C@@H](COCCC(=O)N1CCN2c3ncc(C(F)(F)F)cc3N(C3CC3)C(=O)[C@@H]2C1)Nc1cn[nH]c(=O)c1C(F)(F)F [Compound 30, (s)-5-cyclopropyl-8-(3-((S)-2-((6-oxo-5-(trifluoromethyl)-1,6-dihydropyridazin-4-yl)amino)propoxy)propionyl)-3-(trifluoromethyl)-7,8,9,10-tetrahydro-5H-pyrazino[1,2-a]pyrido[3,2-e]pyrazin-6(6aH)-one] | 100 to 500 | < 10 |  |
| Cc1nc2c(cc1C(F)(F)F)COC[C@H]1CN(C(=O)CCOC[C@H](C)Nc3cn[nH]c(=O)c3C(F)(F)F)CCN21 [Compound 31] | 500 to 5000 | < 10 |  |
| C[C@@H](COCCC(=O)N1CCN2c3ncc(C(F)(F)F)cc3CCC2C1)Nc1cn[nH]c(=O)c1C(F)(F)F (stereo partly drawn) [Compound 32] | < 100 | < 10 |  |
| C[C@@H](COCCC(=O)N1CCN2c3ncc(C(F)(F)F)nc3OC[C@@H]2C1)Nc1cn[nH]c(=O)c1C(F)(F)F [Compound 34, 5-(((S)-1-(3-oxo-3-((S)-3-(trifluoromethyl)-6a, 7,9,10-tetrahydrobipyrazino[2,3-b: 1′,2′-d][1,4]oxazin-8(6H)-yl)propoxy)prop-2-yl)amino)-4-(trifluoromethyl)pyridazin-3(2H)-one] | 500 to 5000 | < 10 |  |
| C[C@@H](COCCC(=O)N1CCN2c3ncc(C(F)(F)F)cc3NCC[C@H]2C1)Nc1cn[nH]c(=O)c1C(F)(F)F [Compound 35, 5-(((S)-1-(3-oxo-3-((S)-3-(trifluoromethyl)-6,7,7a, 8,10,11-hexahydropyrazino[1,2-d]pyrido[3,2-b][1,4]diazepine-9(5H)-yl)propoxy)prop-2-yl)amino)-4-(trifluoromethyl)pyridazin-3(2H)-one] | < 100 | < 10 |  |
| C[C@@H](COCCC(=O)N1CCN2c3ncc(C(F)(F)F)cc3C(=O)CC2C1)Nc1cn[nH]c(=O)c1C(F)(F)F (stereo partly drawn) [Compound 37, 8-(3-((S)-2-((6-oxo-5-(trifluoromethyl)-1,6-dihydropyridazin-4-yl)amino)propoxy)propionyl)-3-(trifluoromethyl)-6,6a, 7,8,9,10-hexahydro-5H-pyrazino[1,2-a][1,8]naphthyridin-5-one] | 100 to 500 | < 10 |  |
| C[C@@H](COCCC(=O)N1CCN2c3ncc(C(F)(F)F)cc3C(O)CC2C1)Nc1cn[nH]c(=O)c1C(F)(F)F (stereo partly drawn) [Compound 38] | 100 to 500 | < 10 |  |
| CCN1C(=O)[C@@H]2CN(C(=O)CCOC[C@H](C)Nc3cn[nH]c(=O)c3C(F)(F)F)CCN2c2ncc(C(F)(F)F)cc21 [Compound 40, (S)-5-ethyl-8-(3-((S)-2-((6-oxo-5-(trifluoromethyl)-1,6-dihydropyridazin-4-yl)amino)propoxy)propionyl)-3-(trifluoromethyl)-7,8,9,10-tetrahydro-5H-pyrazino[1,2-a]pyrido[3,2-e]pyrazin-6(6aH)-one] |  | < 10 | < 100 |
